Like-named read-outs stand apart in the source and are kept apart here.
What was measured:
Type in all cases: cell-based, human
[1] = test system: HT-29 (colorectal carcinoma, B-RafV600E) cells; experiment: Cell proliferation (Alamar Blue) assay, HT-29; details: Homo sapiens, HT-29, HT29 cells
Procedure, shortened: (§1)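 5000 cells/well, 16-24 h attach; cpd 0.0005-10 uM (3-fold dilns) x 72 h, 37° C./5% CO2; Alamar Blue 1× 1-3 h; fluor 540/590 nm; IC50, variable-slope sigmoid.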

[2] = test system: phosphorylation of RSK1(S380) (the downstream target of ERK1/2); experiment: Phospho-RSK1(S380) ELISA assay in HT-29 cells; details: Homo sapiens, HT-29, HT29 cells, read-out: Mechanistic Cell Assay RSK1 Phos HT29 IC50
Procedure, shortened: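 HT-29 colorectal carcinoma cells (B-RafV600E), plated overnight at 37° C./5% CO2, were treated with compound dilutions for 2 h. Lysates were analysed by phospho-RSK1(Ser380) sandwich ELISA with absorbance at 450 nm. IC50 came from a sigmoidal variable-slope dose-response fit.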

[3] = test system: HCT116 (colorectal carcinoma, K Ras G13D) cells; experiment: Cell proliferation (Alamar Blue) assay, HCT116; details: Homo sapiens, HCT-116, HCT116 cells
Procedure, shortened: as §1

Row | Structure (SMILES) | IC50 [1] [nM] | IC50 ([2]; phospho-RSK1(S380)) [nM] | IC50 [3] [nM] | IC50 [2] [nM]
1 | CC[C@@H](CO)Nc1ncc(C)c(-n2cnc(C(=O)N[C@H](CO)c3cccc(Cl)c3)c2)n1 [Example 220, N-((S)-1-(3-chlorophenyl)-2-hydroxyethyl)-1-(2-(((S)-1-hydroxybutan-2-yl)amino)-5-methylpyrimidin-4-yl)-1H-imidazole-4-carboxamide] | 100 to 250 | 250 to 500 | 500 to 2500 | 
2 | CC[C@H](CO)Nc1ncc(C)c(-n2cnc(C(=O)NCc3cccc(Cl)c3CO)c2)n1 [Example 336, (R)-N-(3-chloro-2-(hydroxymethyl)benzyl)-1-(2-((1-hydroxybutan-2-yl)amino)-5-methylpyrimidin-4-yl)-1H-imidazole-4-carboxamide] | ≤ 100 |  | 100 to 250 | ≤ 100
3 | Cc1cnc(NC2CCC(F)(F)CC2)nc1-n1cnc(C(=O)N[C@H](CN)c2cccc(Cl)c2)c1 [Example 286, (S)-N-(2-amino-1-(3-chlorophenyl)ethyl)-1-(2-((4,4-difluorocyclohexyl)amino)-5-methylpyrmidin-4-yl)-1H-imidazole-4-carboxamide] | ≤ 100 | ≤ 100 | ≤ 100 | 
4 | Cc1cnc(NC2CCOCC2)nc1-n1cnc(C(=O)NCc2cccc(CO)c2Cl)c1 [Example 335, N-(2-chloro-3-(hydroxymethyl)benzyl)-1-(5-methyl-2-((tetrahydro-2H-pyran-4-yl)amino)pyrimidin-4-yl)-1H-imidazole-4-carboxamide] | 250 to 500 |  | > 2500 | 100 to 250
5 | Cc1cnc(NC2CCOCC2)nc1-n1cnc(C(=O)NCc2ccccc2CN)c1 [Example 283, N-(2-(aminomethyl)benzyl)-1-(5-methyl-2-((tetrahydro-2H-pyran-4-yl)amino)pyrimidin-4-yl)-1H-imidazole-4-carboxamide] | 500 to 2500 | 500 to 2500 | > 2500 | 
6 | Cc1cnc(NC2CCOCC2)nc1-n1cnc(C(=O)NCc2nc(Cl)sc2C)c1 [Example 328, N-((2-chloro-5-methylthiazol-4-yl)methyl)-1-(5-methyl-2-((tetrahydro-2H-pyran-4-yl)amino)pyrimidin-4-yl)-1H-imidazole-4-carboxamide] | 250 to 500 |  | > 2500 | 250 to 500
7 | CNC[C@@H](NC(=O)c1cn(-c2nc(NC3CCOCC3)ncc2C)cn1)c1cccc(Cl)c1 [Example 326, (S)-N-(1-(3-chlorophenyl)-2-(methylamino)ethyl)-1-(5-methyl-2-((tetrahydro-2H-pyran-4-yl)amino)pyrimidin-4-yl)-1H-imidazole-4-carboxamide] | ≤ 100 |  | ≤ 100 | ≤ 100
8 | Cc1cnc(NC2CCOCC2)nc1-n1cnc(C(=O)N[C@H](CO)c2cccc(Cl)c2)c1 [Compound 211, (S)—N-(1-(3-chlorophenyl)-2-hydroxyethyl)-1-(5-methyl-2-((tetrahydro-2H-pyran-4-yl)amino)pyrimidin-4-yl)-1H-imidazole-4-carboxamide] | ≤ 100 | ≤ 100 | 100 to 250 | 
9 | COc1cc(C(=O)N2CCOCC2)c(F)cc1Nc1ncc(C)c(-n2ccc(C(=O)NC(CO)c3cccc(Cl)c3)c2)n1 (stereo not drawn) [Example 181, N-(1-(3-chlorophenyl)-2-hydroxyethyl)-1-(2-((5-fluoro-2-methoxy-4-(morpholine-4-carbonyl)phenyl)amino)-5-methylpyrimidin-4-yl)-1H-pyrrole-3-carboxamide] | > 2500 | 500 to 2500 | > 2500 | 
10 | O=C(N[C@H](CO)c1cccc(Cl)c1)c1ccn(-c2ccnc(NC3CCOC3)c2)c1 (stereo partly drawn) [Example 188, N-((S)-1-(3-chlorophenyl)-2-hydroxyethyl)-1-(2-((tetrahydrofuran-3-yl)amino)pyridin-4-yl)-1H-pyrrole-3-carboxamide] | > 2500 | > 2500 | > 2500 | 
11 | O=C(N[C@H](CO)c1cccc(Cl)c1)c1cn(-c2ccnc(NC3CC3)c2)cn1 [Example 116, (S)-N-(1-(3-chlorophenyl)-2-hydroxy-ethyl)-1-(2-(cyclopropyl-amino)pyridin-4-yl)-1H-imidazole-4-carboxamide] | > 2500 | 500 to 2500 | > 2500 | 

Second part, the compound after the results:

Row | IC50 [1] [nM] | IC50 ([2]; phospho-RSK1(S380)) [nM] | IC50 [3] [nM] | IC50 [2] [nM] | Structure (SMILES)
12 | 100 to 250 | ≤ 100 | 500 to 2500 |  | Cc1cnc(N[C@@H]2CCOC2)nc1-n1ccc(C(=O)N[C@H](CO)c2cccc(Cl)c2)c1 [Example 162, N-((S)-1-(3-chlorophenyl)-2-hydroxy-ethyl)-1-(5-methyl-2-(((R)-tetra-hydrofuran-3-yl)amino)pyrimidin-4-yl)-1H-pyrrole-3-carboxamide]
13 | ≤ 100 | 100 to 250 | 500 to 2500 |  | Cc1cnc(NC2CCOC2)nc1-n1ccc(C(=O)N[C@H](CO)c2cccc(Cl)c2)c1 (stereo partly drawn) [Example 151, N-((S)-1-(3-chlorophenyl)-2-hydroxy-ethyl)-1-(5-methyl-2-((tetrahydro-furan-3-yl)amino)pyrimidin-4-yl)-1H-pyrrole-3-carboxamide]
14 | 500 to 2500 | > 2500 | 500 to 2500 |  | Cc1cnc(Nc2ccc3c(c2)OC(F)(F)O3)nc1-n1ccc(C(=O)NC(CN)c2cccc(Cl)c2)c1 (stereo not drawn) [Cmpd 136, N-(2-amino-1-(3-chloro-phenyl)ethyl)-1-(2-((2,2-difluoro-benzo[d][1,3]dioxol-5-yl)amino)-5-methyl-pyrimidin-4-yl)-1H-pyrrole-3-carboxamide]
15 | 500 to 2500 | 100 to 250 | 250 to 500 |  | Cc1cnc(Nc2ccc3c(c2)OCO3)nc1-n1ccc(C(=O)NC(CO)c2ccc(F)cc2)c1 (stereo not drawn) [Example 172, 1-(2-(benzo[d][1,3]dioxol-5-ylamino)-5-methylpyrimidin-4-yl)-N-(1-(4-fluorophenyl)-2-hydroxyethyl)-1H-pyrrole-3-carboxamide]
16 | 500 to 2500 | 500 to 2500 | 500 to 2500 |  | COc1ccc(Nc2ncc(C)c(-n3ccc(C(=O)NC(CO)c4ccccc4)c3)n2)cc1OCCN1CCN(C)CC1 (stereo not drawn) [Example 148, N-(2-hydroxy-1-phenylethyl)-1-(2-((4-methoxy-3-(2-(4-methyl-piperazin-1-yl)ethoxy)-phenyl)amino)-5-methyl-pyrimidin-4-yl)-1H-pyrrole-3-carboxamide]
17 | 250 to 500 | 250 to 500 | 500 to 2500 |  | Cc1cnc(Nc2ccc3c(c2)OCO3)nc1-n1cnc(C(=O)N[C@H](CO)c2cccc(Cl)c2)c1 [Example 48, (S)-1-(2-(benzo[d][1,3]dioxol-5-ylamino)-5-methyl-pyrimidin-4-yl)-N-(1-(3-chloro-phenyl)-2-hydroxy-ethyl)-1H-imidazole-4-carboxamide]
18 | > 2500 | > 2500 | > 2500 |  | O=C(Nc1cnn(-c2ccnc(Nc3ccc4c(c3)OCO4)n2)c1)N[C@H](CO)c1cccc(Cl)c1 [Example 21, (S)-1-(1-(2-(benzo[d][1,3]dioxol-5-ylamino)-pyrimidin-4-yl)-1H-pyrazol-4-yl)-3-(1-(3-chlorophenyl)-2-hydroxyethyl) urea]
19 | 500 to 2500 | 500 to 2500 | > 2500 |  | Cc1cnc(N[C@H]2CCOC2)nc1-n1ccc(C(=O)NC(CO)c2ccc(F)cc2)c1 (stereo partly drawn) [Example 204, N-(1-(4-fluorophenyl)-2-hydroxyethyl)-1-(5-methyl-2-(((S)-tetrahydrofuran-3-yl)amino)pyrimidin-4-yl)-1H-pyrrole-3-carboxamide]
20 | 250 to 500 | 250 to 500 | 250 to 500 |  | Cc1cnc(Nc2ccc3c(c2)OCO3)nc1-n1ccc(C(=O)N[C@H](CO)Cc2ccccc2)c1 [Example 59, (S)-1-(2-(benzo[d][1,3]dioxol-5-ylamino)-5-methyl-pyrimidin-4-yl)-N-(1-hydroxy-3-phenyl-propan-2-yl)-1H-pyrrole-3-carboxamide]
21 | > 2500 | 500 to 2500 | > 2500 |  | Cc1cnc(Nc2cccc3c2OC(F)(F)O3)nc1-n1ccc(C(=O)NC(CO)c2cccc(Cl)c2)c1 (stereo not drawn) [Example 160, N-(1-(3-chloro-phenyl)-2-hydroxy-ethyl)-1-(2-((2,2-difluoro-benzo[d][1,3]dioxol-4-yl)amino)-5-methyl-pyrimidin-4-yl)-1H-pyrrole-3-carboxamide]
22 | ≤ 100 | ≤ 100 | 100 to 250 |  | Cc1cnc(Nc2ccc3c(c2)OCO3)nc1-n1ccc(C(=O)N[C@H](CO)c2ccccc2)c1 [Example 60, (S)-1-(2-(benzo[d][1,3]dioxol-5-ylamino)-5-methyl-pyrimidin-4-yl)-N-(2-hydroxy-1-phenylethyl)-1H-pyrrole-3-carboxamide]
23 | 250 to 500 | 100 to 250 | 500 to 2500 |  | Cc1cnc(NC2CCOC2)nc1-n1ccc(C(=O)NC(CO)c2cccc(Cl)c2)c1 (stereo not drawn) [Example 123, N-(1-(3-chlorophenyl)-2-hydroxy-ethyl)-1-(5-methyl-2-((tetrahydro-furan-3-yl)amino)pyrimidin-4-yl)-1H-pyrrole-3-carboxamide]
24 | 500 to 2500 | 500 to 2500 | 250 to 500 |  | Cc1cnc(Nc2ccc3c(c2)OCCC3)nc1-n1ccc(C(=O)NC(CO)c2ccccc2)c1 (stereo not drawn) [Example 186, 1-(2-(chroman-7-ylamino)-5-methylpyrimidin-4-yl)-N-(2-hydroxy-1-phenylethyl)-1H-pyrrole-3-carboxamide]
25 | 250 to 500 | 100 to 250 | 500 to 2500 |  | O=C(NC(CO)c1ccccc1)c1ccn(-c2nc(Nc3ccc4c(c3)OCO4)ncc2F)c1 (stereo not drawn) [Example 66, 1-(2-(benzo[d][1,3]dioxol-5-ylamino)-5-fluoro-pyrimidin-4-yl)-N-(2-hydroxy-1-phenylethyl)-1H-pyrrole-3-carboxamide]

From patent US11925629B2, “Heterocyclic inhibitors of ERK1 and ERK2 and their use in the treatment of cancer” (Asana Biosciences, LLC, priority 2015, dated 2024)
